# Measured values taken from patent US7312302B2, “Compositions for the detection of enzyme activity in biological samples and methods of use thereof” (Oncolmmunin, Inc., priority 1997, dated 2007).
# Non-standard residues stand in square brackets, D forms with d. Primed or numbered codes have the meaning given here. No end group written: not given here. *: point of attachment. F1 = 5-carboxytetramethylrhodamine (donor fluorophore); F1(3) = carboxytetramethylrhodamine; Fmoc = O=C(OCC1c2ccccc2-c2ccccc21)*; code B = not defined here; code J = not defined here; Cbz = O=C(OCc1ccccc1)*; F1″ = not defined here; C5 = not defined here
# System: not listed separately
# Experiment: Ground-state (H-type) dimer formation by absorption spectroscopy
# Type: physicochemical
# Settings: homodoubly-labeled peptides
# Description: This was indicated by shift of absorption maxima to shorter wavelengths as well as a shape change of the absorption spectra as compared with the spectra for the enzyme digested doubly-labeled samples. Upon cleavage with elastase, the ground-state dimers were destroyed and the resulting spectra were the same as a solution containing equal concentrations of the respective singly labeled peptides.
# For example, NorFes, an undecapeptide which is cleaved by the serine protease elastase, was homodoubly labeled on opposite sides of its cleavage site with six fluorophores in order to identify structural elements of dyes which influence intramolecular H-type dimer formation.
row,Compound,"dye-dye (ground-state, H-type) dimer formation / spectral change"
1,c1cc2ccc3cccc4ccc(c1)c2c34 [pyrene],No spectral changes were observed
2,F1-DEVDGIDPK[F1]GY ({F1(3)}-DEVDGIDPK(F1(3))GY),did not allow the formation of productive H-type dimers
3,F1-PDEVDGIDPK[F1]GY ({F1(3)}-PDEVDGIDPK(F1(3))GY),did not allow the formation of productive H-type dimers

# System: Jurkat cells, HL-60 cells, human lymphocyte lines, A1.1 cells, murine primary thymocytes
# Experiment: Cellular uptake of substrates by fluorescence microscopy, flow cytometry, HPLC
# Type: cell-based
# Settings: viable cells
# Description: The compounds listed in Table 6 were synthesized and assayed for cellular uptake. Cellular internalization of the substrates was tested using Jurkat cells (a human acute T cell leukemic line), HL-60 cells (a human promyelocytic leukemic line), human lymphocyte lines, A1.1 cells (a murine T-cell line), and murine primary thymocytes. Procedures used in determining substrate uptake by viable cells are provided in Example 6 (for the HPLC procedures), in Example 2 (for the fluorescence microscopic analysis), and in Example 3 (for the flow cytometric analysis) a summary of these analyses with respect to cellular uptake of substrates is presented in this example.
# The elastase substrate, Fm—K[F1]DAIPNluSIPK[F1]GY (SEQ ID NO:185), (where F1 was carboxytetramethylrhodamine, Fm was Fmoc, K[F1] was F1 covalently attached through the epsilon amino group of lysine (K), and Fm—K is the Fmoc group covalently attached at the alpha amino group of the amino terminal lysine residue) was used with HL-60 cells. Cells were incubated with various concentrations of elastase substrate ranging from 10 nM to 10 μM for 5 minutes to 60 minutes. Then the cells were diluted 5-fold with RPMI 1640 medium containing 5% serum or with phosphate buffered saline. The samples were centrifuged and washed once more with 1 ml of washing solution. After centrifugation and removal of the washing solution, cell pellets were loosened with about 25 ul of medium and these cells were transferred to a glass capillary. Capillary tubes were then placed on a glass microscope slide and examined under a fluorescence microscope using standard rhodamine filters.
# For apoptosis-related protease activity determination, 10 μM concentration of the compounds listed in Example 8 (compound structures 2 through 13) were incubated with cells for 30 min. to 3 hours. The cells were then washed similarly twice. Using glass capillary tubes, the washed cells were transferred and examined under a fluorescence microscope.
# The concentration of substrates used in flow cytometric analysis was 10 M in RPMI1640 medium containing 4 to 10% fetal calf serum. Cell densities during incubation with the chosen substrates ranged from 50,000 cells per ml to 4,000,000 per ml. Incubation times were from 30 min. to 3 hours at 37° C. and incubation volumes were 50 μL to 2 ml. After incubation with substrate for 30 to 60 min. cell suspensions were diluted 10-fold with ice cold Hank's Buffered Saline Solution (HBSS). This filtered cell suspension was then subjected to flow cytometric analysis using a 488 nm excitation source. Becton Dickenson, Inc.'s flow cytometer, FacSort, was used in the flow cytometric analysis. Typically, 10,000 to 30,000 events per sample were collected.
row,Compound,cellular uptake (Table 6)
1,Fm-DAIPNluSIPK[F1]GY [Compound 3],does not result in significant cellular uptake
2,Fm-K[F1]DAIPNluSIPK[F1]GY [Compound 1],efficient cellular uptake
3,Fm-K[F1]DBDEVDGIDPK[F1]GY (Fmoc-K(F1″)D[code B]DEVDGIDPK(F1″)GY; reading uncertain; also: printed as Fm-K[F1]DBDEVDGIDPK[F1]GY) [Compound 4],efficient cellular uptake
4,Fm-K[F1]DBDEVNGIDPK[F1]GY (Fmoc-K(F1″)D[code B]DEVNGIDPK(F1″)GY; reading uncertain; also: printed as Fm-K[F1]DBDEVNGIDPK[F1]GY) [Compound 6],efficient cellular uptake
5,Fm-K[F1]DBEVDGIDPK[F1]GY (Fmoc-K(F1″)D[code B]EVDGIDPK(F1″)GY; reading uncertain; also: printed as Fm-K[F1]DBEVDGIDPK[F1]GY) [Compound 8],efficient cellular uptake
6,Fm-K[F1]DBGDEVDGIDGPK[F1]GY (K(F1)D[code B]GDEVDGIDGPK(F1)GY; not fully specified (N-terminus); printed as Fm-K[F1]DBGDEVDGIDGPK[F1]GY; reading uncertain) [Compound 10],efficient cellular uptake
7,K[F1]DAIPNluSIPK[F1]GY [Compound 2],not optimum for cellular uptake
8,K[F1]DBDEVDGIDPK[F1]GY (K(F1″)D[code B]DEVDGIDPK(F1″)GY; reading uncertain; also: printed as K[F1]DBDEVDGIDPK[F1]GY) [Compound 5],not optimum for cellular uptake
9,K[F1]DBDEVNGIDPK[F1]GY (K(F1″)D[code B]DEVNGIDPK(F1″)GY; reading uncertain; also: printed as K[F1]DBDEVNGIDPK[F1]GY) [Compound 7],not optimum for cellular uptake
10,K[F1]DYBADGIDPK[F1]GY (K(F1″)DY[code B]ADGIDPK(F1″)GY; reading uncertain; also: printed as K[F1]DYBADGIDPK[F1]GY) [Compound 9],not optimum for cellular uptake
11,Z-K[F1]DBJGDEVDGIDGJPK[F1]GY (Cbz-K(F1″)D[code B][code J]GDEVDGIDG[code J]PK(F1″)GY; reading uncertain; also: printed as Z-K[F1]DBJGDEVDGIDGJPK[F1]GY) [Compound 12],efficient cellular uptake

# Molecular target: T1, CPP32 protease (Homo sapiens, UniProt P42574)
# T1 construct: served as a direct measure of the intracellular CPP32 protease activity; endogenous in cells
# T1 sequence (P42574 29-277): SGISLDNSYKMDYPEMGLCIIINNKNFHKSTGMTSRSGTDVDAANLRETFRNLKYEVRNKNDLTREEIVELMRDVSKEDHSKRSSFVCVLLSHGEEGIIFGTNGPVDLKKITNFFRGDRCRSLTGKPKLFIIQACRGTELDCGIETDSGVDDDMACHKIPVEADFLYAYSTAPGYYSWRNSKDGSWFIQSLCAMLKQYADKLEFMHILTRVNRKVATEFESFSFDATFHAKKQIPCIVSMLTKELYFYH
# Experiment: Cell lysate hydrolysis of DEVD-AFC, competitive substrate inhibition (anti-Fas-stimulated Jurkat cell lysate)
# Type: biochemical
# Settings: concentration raised to 25 μM; 50 μM DEVD-AFC, 37° C.
# Description: The level of CPP32 protease activity in the 6 hr ant-Fas-stimulated Jurkat cell lysate was examined using the protease substrate, DEVD-AFC (where AFC is aminofluoromethyl coumarin) 50 μM substrate concentration at 37° C. The buffer used was 50 mM HEPES, pH7.5, 10% w/v sucrose, 0.1% w/v CHAPS.) Fluorescence intensity changes were monitored with an SLM 48000 spectrofluorometer. […] As the concentrations of DEVD, DEVN, and ICE were raised to 25 μM, the rate of DEVD-AFC hydrolysis was decreased.
row,Compound,rate of DEVD-AFC hydrolysis in presence of substrate
1,K[F1]DBDEVDGIDPK[F1]GY (K(F1″)D[code B]DEVDGIDPK(F1″)GY; reading uncertain; also: printed as K[F1]DBDEVDGIDPK[F1]GY) [Compound 5],decreased
2,K[F1]DBDEVNGIDPK[F1]GY (K(F1″)D[code B]DEVNGIDPK(F1″)GY; reading uncertain; also: printed as K[F1]DBDEVNGIDPK[F1]GY) [Compound 7],decreased
3,K[F1]DYBADGIDPK[F1]GY (K(F1″)DY[code B]ADGIDPK(F1″)GY; reading uncertain; also: printed as K[F1]DYBADGIDPK[F1]GY) [Compound 9],decreased

# System: DEVDase activity (caspase 3/7)
# Experiment: DEVDase activity in apoptotic thymocyte extract using PhiPhiLux substrate, with protease inhibitors
# Type: biochemical, mouse
# Settings: apoptotic thymocyte extract, FIG. 5
# Description: FIG. 5 illustrates the inhibition of DEVDase activity in apoptotic thymocyte extract using PhiPhiLux™ substrate. An extract of mouse thymocytes exposed to 0.1 mM dexamethasone for 6 h was incubated in fluorometer cuvettes at 37° C. with 10 mM PhiPhiLux™ substrate with or without the indicated protease inhibitors. Enzymatic activity was calculated from the rate of increase of fluorescence.
# Single cell suspensions of thymocytes were cultured in RPMI 1640 with 10% FCS at a concentration of 10 6 cells/ml. Dexamethasone (final concentration, 0.1 mM) and ZVAD (OMe)FMK (final concentration, 50 mM) were added at the indicated times from stock solutions in DMSO (100 mM for dexamethasone and 200 mM for ZVAD[OMe]FMK). For antiFas stimulation, wells in a 24 well plate were coated with antiFas antibody (20 mg/ml; […] per well) overnight at 378 C. After twice washing the wells with medium containing 10% FCS, 4 3 10 6 thymocytes were added per well. After culture at 378 C in a 5% CO2 atmosphere for the indicated times, cells were centrifuged and resuspended in 75 ml of each substrate (10 mM) in 1.5 ml Eppendorf tubes. The open tubes were placed in the CO2 incubator for an additional 60 min. After washing in saline, cells were analyzed by flow cytometry. Caspase activity measurements in extracts with several known inhibitors and noninhibitors were carried out using fluorometers from Photon Technology International and SLMAMINCO. Cell lysates were prepared using a cell lysate buffer consisting of 50 mM Hepes, pH 7.5, 10% (wt/vol) sucrose, 0.1% (wt/vol) CHAPS, 0.5% (wt/vol) Triton X100, and 10 mM DTT. The substrate (10 mM) was prepared in 50 mM Hepes, pH 7.5, with 10 mM DTT. All measurements were made at 378 C using a thermostated cell holder in a 150 ml quartz cuvette (3 3 3. 45 mm; Starna Cells, Inc.). The temperature of the substrate solution was preequilibrated for 20 min, ensuring temperature equilibration by having a flat base line before cell lysate addition. A 10 ml aliquot from an apoptotic thymocyte lysate was added to 110 ml of substrate solution. The fluorescence intensity was then monitored for 30-60 min. The initial velocity was calculated from the linear portion of the fluorescence increase. Various amounts of inhibitors were added to the cell lysate for 20 min before addition of the cell lysate mixture to the substrate solution.
# The caspase substrates used in these studies were based on optimal peptide recognition motifs for various caspases as reported by peptide library studies (2) and are described in Table I. To assess whether cleavage of these substrates in apoptotic thymocytes was due to caspases, we examined extracts from untreated fresh thymocytes, or from thymocytes treated with dexamethasone.
row,Compound,inhibition of apoptotic DEVDase activity
1,CC(C)C[C@H](NC(=O)[C@H]1O[C@@H]1C(=O)O)C(=O)NCCCCN=C(N)N [Compound E64],lack of inhibition
2,CC(=O)N[C@@H](CC(=O)O)C(=O)N[C@@H](CCC(=O)O)C(=O)N[C@H](C(=O)N[C@H](C=O)CC(=O)O)C(C)C [DEVDCHO],complete inhibition
3,NC(=O)CI [iodoacetamide],inhibition
4,CC(=O)N[C@@H](CC(C)C)C(=O)N[C@@H](CC(C)C)C(=O)N[C@H](C=O)CCCNC(=N)N [leupeptin],lack of inhibition

# Same assay, conditions: on a cell basis
row,Compound,cleavage by apoptotic thymocyte extracts relative to fresh thymocyte extracts
1,"KDPC5GDEVDGIDGC5PKGY (KDP[C5]GDEVDGIDG[C5]PKGY; reading uncertain; also: printed as KDPC5GDEVDGIDGC5PKGY) [PhiPhiLux, cell-permeable fluorogenic caspase 3/7 substrate from OncoImmunin, Inc]",25 fold

# System: not given
# Experiment: not given
# Settings: doubly labeled NorFes, Packard et al. 1998; cited from earlier work
row,Compound,free energy of activation of disruption of homodimers
1,CN(C)c1ccc2c(-c3ccccc3C(=O)[O-])c3ccc(N(C)C)cc3[o+]c2c1 [tetramethylrhodamine],at least 1.7 kcal/mole
2,diethylrhodamine,2.4 kcal/mol

# Same assay, conditions: free dye in solution; cited from earlier work
row,Compound,concentration above which ground-state dimerization of free dye in solution was observed
1,O=C1OC2(c3ccccc31)c1cc(Br)c(O)c(Br)c1Oc1c2cc(Br)c(O)c1Br [Eosin],higher than 2.8×10^−2 M
2,CCN(CC)c1ccc2c(-c3ccccc3C(=O)O)c3ccc(=[N+](CC)CC)cc-3oc2c1.[Cl-] [Rhodamine B],higher than 6×10^−4 M
